From US20220287306A1, “METHOD FOR IMPROVING TURFGRASS ABIOTIC STRESS TOLERANCE” (SYNGENTA PARTICATIONS AG, priority 2014, published 2022)

Assays:
Assay type in all cases: in vivo
warm-season turfgrasses = experiment: Abiotic stress and phytotoxicity at stated application rates on warm-season turfgrasses; details: ASM between about 4 and about 200 g/ha per application
From the text: As indicated above, the methods of the present invention may be useful in suppressing abiotic stress or stresses in warm-season turfgrasses. In some embodiments of the present invention, ASM may be applied at a rate of between about 4 and about 200 g/ha per application. In further embodiments of the invention, ASM may be applied at a rate between about 12 and about 150 g/ha per application, or between 12 and about 96 g/ha per application, or between about 12 and about 64 g/ha per application, or between about 12 and about 32 g/ha per application, or between about 32 and about 140 g/ha per application, or between about 32 and about 96 g/ha per application, or between about 32 and about 64 g/ha per application, or between about 64 and about 140 g/ha per application, or between about 64 and about 96 g/ha per application, or between about 96 and about 140 g/ha per application.

Ultradwarf Bermudagrass [1] = experiment: Turf quality and phytotoxicity on golf course greens (Example 3); details: ASM 30.8 g/ha per spray, 15 applications at 14 day intervals
From the text: (§1) Fifteen applications of treatments were made on 14 day intervals through the season (starting in May and extending through October) on Ultradwarf Bermudagrass on golf course greens. The treatments included (1) a Control that included products with the active ingredients of chlorothalonil, fluazinam and azoxystrobin and no ASM and (2) a treatment that included products with the same active ingredients and rates of the Control treatment, but also included 30.8 g/ha rate of ASM for each spray.
(§2) Turfgrass Samples from the treated plots were taken from a) the ASM treated plots as well b) the Control plots without acibenzolar-s-methyl at two different timings—July 2015 and September 2015. All samples were tested for evapotranspiration at various vapor pressure deficits (VPD) in the growth chamber. The results of the testing are illustrated in FIGS. 9-12.

Ultradwarf Bermudagrass [2] = experiment: Evapotranspiration of treated turfgrass samples at various vapor pressure deficits in the growth chamber (Example 3); details: ASM 30.8 g/ha per spray, 15 applications at 14 day intervals, with chlorothalonil, fluazinam and azoxystrobin products; vs Control without ASM; samples July 2015 and September 2015
From the text: as §1, §2

cool-season grasses = experiment: Phytotoxicity at stated application rates on cool-season grasses; details: ASM between about 4 and about 200 g/ha per application

## CSC(=O)c1cccc2nnsc12 [ASM, S-methyl benzo[1,2,3]thiadiazole-7-carbothioate]
warm-season turfgrasses
  phytotoxicity to warm-season turfgrasses: avoiding unacceptable phytotoxicity
Ultradwarf Bermudagrass [1]
  phytotoxicity to the turfgrass: did not result in any unacceptable phytotoxicity
Ultradwarf Bermudagrass [1]; with chlorothalonil, fluazinam and azoxystrobin products
  turf quality under drought or heat stress: improved turf quality
Ultradwarf Bermudagrass [2]
  evapotranspiration as VPD increases: overall reduced evapotranspiration
cool-season grasses
  phytotoxicity to cool-season grasses: unacceptable levels of phytotoxicity
